Experimental data taken from article PMC12089509, “NorA Efflux Pump Inhibitors: Expanding SAR Knowledge of Pyrazolo[4,3‐c][1,2]benzothiazine 5,5‐Dioxide Derivatives” (Archiv Der Pharmazie, 2025).
Converted amounts (≈) assume the structure as drawn. Where two headings read alike, the source gives them in different places.

Experiments:
[1] = test system: Staphylococcus aureus SA-K2378 biofilm; format: cell-based; conditions: CPX alone at ½ MIC, vs untreated control
From the text: The formation of biofilms is a significant contributor to the development of AMR [1, 26, 27]. This is due to the fact that biofilms provide a protective environment for bacteria, thereby rendering them more resilient to the effects of common antibacterial agents. Over the years, several investigations have been conducted to study the role of EPs in the various stages of microbial biofilm formation. However, a definitive answer regarding the potential role of EPs in this microbial pathway remains elusive. While some studies have reported a negative effect of certain EPs on biofilm formation, others have highlighted the promising role of EPIs in limiting biofilm formation and enhancing the efficacy of antibiotics under biofilm conditions.
The biofilm production by SA‐K1902 and SA‐K2378 strains was analyzed in flat 96‐well microtiter plates as previously described, with some modifications. […] The microplates were incubated at 37°C for 24 h in static conditions. After incubation, the biofilms were washed three times with distilled water, dried at 60°C for 1 h, and stained with 0,1% crystal violet for 10 min. After staining, the crystal violet was removed and the wells were washed three times with water, dried at 37°C for 30 min, and the bound crystal violet was solubilized with 96% ethanol in shaking conditions. At the end of the destaining, the absorbance (570 nm) of the solutions in each well was measured using the FLUOstar Omega plate reader (BMG‐LABTECH, Germany) to quantify the biofilm produced in each condition compared with the control (biofilm produced by the strain without any compound/antibiotic). Biofilm assays were performed in triplicate for each condition.

[2] = test system: S. aureus SA-K2378 (norA ++); assay: MIC evaluation against SA-K2378; format: cell-based, Staphylococcus aureus
From the text: (§1) Conversely, interesting results were obtained against SA‐K2378, which overexpresses the norA gene (Table 2). […] This corroborates the hypothesis that their activity is strictly related to NorA EP inhibition.
(§2) In this study, the S. aureus strains SA‐1199B (overexpressing norA) and its isogenic parent SA‐1199 (wild type), the pair SA‐K1902 (norA‐depleted) and SA‐K2378 (complemented with a pCU1 plasmid harboring the norA promoting and coding region from SA‐1199B), were used to test EPI activity as described in a previous study. Furthermore, the S. aureus ATCC 29213 was used as the reference strain in MIC determination experiments.

[3] = test system: Staphylococcus aureus SA-1199B; assay: MIC determination (broth microdilution) against SA-1199B; format: cell-based; conditions: SA1199B
From the text: as §2

[4] = test system: S. aureus SA-K1902 (norA-); assay: MIC evaluation against SA-K1902; format: cell-based, Staphylococcus aureus
From the text: as §1, §2

[5] = test system: Staphylococcus aureus SA-1199B; format: cell-based
From the text: For purposes of comparison, compound 1 was included as a reference.

[6] = MTT cytotoxicity assay on A549; format: cell-based; conditions: human, A549 cells, read-out: Cytotoxicity (% cell viability)
Procedure: (§3) The MTT assay was performed on two human ATCC cell lines, that is, […] (CCL‐185) and MCF7 (HTB‐22), to test the potential cytotoxic effect of the compounds, after 72 h exposure, as previously described. Each compound was tested at concentrations ranging from 12.5 to 100 μg/mL. Untreated cells were considered as controls. The percentage of viable cells was calculated as follows: % Cell viability = 100 × treated well absorbance/untreated control well absorbance. All assays were performed once in technical quadruplicate.

[7] = molecular target: T1, S. aureus NorA efflux pump (SA-1199B strain, overexpresses the norA gene) (Staphylococcus aureus, UniProt P0A0J7); assay: EtBr efflux inhibition assay; format: cell-based; conditions: for inhibition at 10 µM: read-out: EtBr efflux inhibition (%), compound at 10 µM, SA-1199B; for inhibition at 50 µM: read-out: EtBr efflux inhibition (%), compound at 50 µM, SA-1199B
T1 construct: endogenous in cells; host or cells: S. aureus SA-1199B (overexpresses norA; isogenic parent SA-1199)
Procedure: EtBr efflux inhibition assays were conducted using the S. aureus SA‐1199B strain, which overexpresses the norA gene and has an A116E GrlA substitution. Each compound was tested at 50 µM (see Figure 2). The starting hit compound 1 was used as the internal standard for comparison with the previously reported data.
The cells were grown overnight in cation‐supplemented Mueller–Hinton broth (CAMHB) without any additives at 35°C. The organisms were subsequently diluted into CAMHB to obtain an optical density at 600 nm (OD600) of 0.7–0.8. Subsequently, the cells were pelleted and resuspended at an OD600 of 0.8 in 0.5 mL aliquots of CAMHB containing EtBr and carbonyl cyanide m‐chlorophenylhydrazone (CCCP) to “load” the cells with EtBr (final concentrations of 25 μM for EtBr and 100 μM for CCCP). Following 20 min of incubation at room temperature, the cells were pelleted and resuspended in 1 mL of fresh CAMHB. Immediately thereafter, 200 μL aliquots were transferred into the wells of white 96‐well plates, which either lacked or contained 50 or 10 μM of each test compound. Fluorescence was monitored continuously using a microplate reader (Infinite M200 Pro, TECAN) at excitation and emission wavelengths of 485 and 645 nm, respectively, for a period of 5 min. The experiments were conducted in triplicate, with two technical replicates per biological replicate. The efflux activity of the SA‐1199B strain was expressed as a percentage of fluorescence decrease over a 5‐min time course. The inhibition of this efflux by the test compounds was determined using the following equation: ([efflux in the absence] ‐ [efflux in the presence of test [compound])/[efflux in the absence of test compound] × 100, which yielded the percent efflux inhibition observed.
^a Experiments were performed in triplicate with two technical replicates per biological replicate. Efflux activity of SA-1199B was expressed as percent fluorescence decrease over a 5 min time course. Inhibition of this efflux by test compounds was determined using the equation [efflux in the absence] − [efflux in the presence of test [compound]/[efflux in the absence of test compound] × 100, giving the percent efflux inhibition observed.

[8] = MTT cytotoxicity assay on MCF7; format: cell-based; conditions: human, MCF7 cells, read-out: Cytotoxicity (% cell viability)
Procedure: as §3

[9] = test system: S. aureus SA-K2378 (norA ++); assay: Checkerboard assay EPI/CPX against SA-K2378; format: cell-based, Staphylococcus aureus
Procedure: as §1
(§4) Checkerboard assays were carried out using SA‐K1902 and SA‐K2378 strains according to standard procedures.

[10] = test system: S. aureus SA-K1902 (norA-); assay: Checkerboard assay EPI/CPX against SA-K1902; format: cell-based, Staphylococcus aureus
Procedure: as §4

[11] = test system: S. aureus SA-1199 (wild type); assay: Synergistic assay with CPX against wild-type SA-1199; format: cell-based, Staphylococcus aureus; conditions: EPI at 3.13 µg/mL with CPX
From the text: (§5) This finding aligns with their mechanism of action, which involves the inhibition of NorA, which is only basally expressed in the wild‐type SA‐1199 strain.

[12] = test system: S. aureus SA-1199 (wild type); assay: MIC determination against wild-type SA-1199; format: cell-based; conditions: Staphylococcus aureus, compound alone
From the text: as §5

T1 sequence (P0A0J7 whole entry): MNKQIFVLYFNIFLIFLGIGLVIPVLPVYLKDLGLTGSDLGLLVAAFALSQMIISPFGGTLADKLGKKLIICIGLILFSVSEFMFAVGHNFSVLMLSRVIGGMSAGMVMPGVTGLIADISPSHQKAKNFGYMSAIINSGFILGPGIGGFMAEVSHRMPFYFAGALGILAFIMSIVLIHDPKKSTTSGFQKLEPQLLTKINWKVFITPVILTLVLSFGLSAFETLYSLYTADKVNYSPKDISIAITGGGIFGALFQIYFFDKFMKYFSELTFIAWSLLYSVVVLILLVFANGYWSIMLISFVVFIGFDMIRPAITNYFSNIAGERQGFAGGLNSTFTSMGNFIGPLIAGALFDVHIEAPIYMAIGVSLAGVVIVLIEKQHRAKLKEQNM

Compound: O=C(O)c1cn(C2CC2)c2cc(N3CCNCC3)c(F)cc2c1=O [CPX, ciprofloxacin, reference compound]
- increase in biofilm formation [1]: 42%
- CPX MIC ([2]; CPX alone, SA-K2378 (norA ++)): 1.25 µg/mL
- MIC [3]: 10 µg/mL (≈ 30.2 µM)
- CPX MIC ([4]; CPX alone, SA-K1902 (norA-)): 0.15 µg/mL

Compound: O=[N+]([O-])c1ccc(-n2nc(-c3ccc(Cl)cc3)c3c2-c2ccccc2S(=O)(=O)N3)cc1 [Compound 1, reference compound]
- N° fold CPX MIC reduction ([5]; EPI at 3.12 µg/mL): 2 fold
- N° fold CPX MIC reduction ([5]; EPI at 6.25 µg/mL): 8 fold
- N° fold CPX MIC reduction ([5]; EPI at 12.5 µg/mL): 16 fold
- viability at 72 h, 12.5 µg/mL ([6]; A549, 12.5 μg/mL): 90 ± 16%
- viability at 72 h, 25 µg/mL ([6]; A549, 25 μg/mL): 76 ± 1%
- viability at 72 h, 50 µg/mL ([6]; A549, 50 μg/mL): 32 ± 5%
- viability at 72 h, 100 µg/mL ([6]; A549, 100 μg/mL): 8 ± 1%
- MIC ([2]; Staphylococcus aureus): 12.5 µg/mL (≈ 27.6 µM)
- inhibition at 10 µM [7]: 0%
- inhibition at 50 µM [7]: 77%
- viability at 72 h, 12.5 µg/mL ([8]; MCF7, 12.5 μg/mL): 81 ± 6%
- viability at 72 h, 25 µg/mL ([8]; MCF7, 25 μg/mL): 71 ± 3%
- viability at 72 h, 50 µg/mL ([8]; MCF7, 50 μg/mL): 50 ± 3%
- viability at 72 h, 100 µg/mL ([8]; MCF7, 100 μg/mL): 43 ± 3%
- CPX MIC ([9]; EPI at 0.8 µg/mL): 0.6 µg/mL
- N° CPX MIC reduction ([9]; EPI at 0.8 µg/mL): 2
- CPX MIC ([9]; EPI at 1.6 µg/mL): 0.3 µg/mL
- N° CPX MIC reduction ([9]; EPI at 1.6 µg/mL): 4
- CPX MIC ([9]; EPI at 3.13 µg/mL): 0.3 µg/mL
- N° CPX MIC reduction ([9]; EPI at 3.13 µg/mL): 4
- CPX MIC ([10]; EPI at 0.8 µg/mL): 0.15 µg/mL
- N° CPX MIC reduction ([10]; EPI at 0.8 µg/mL): 0
- CPX MIC ([10]; EPI at 1.6 µg/mL): 0.15 µg/mL
- N° CPX MIC reduction ([10]; EPI at 1.6 µg/mL): 0
- CPX MIC ([10]; EPI at 3.13 µg/mL): 0.15 µg/mL
- N° CPX MIC reduction ([10]; EPI at 3.13 µg/mL): 0
- MIC [3]: 50 µg/mL (≈ 110 µM)
- MIC ([4]; Staphylococcus aureus): 12.5 µg/mL (≈ 27.6 µM)

Compound: CN1c2c(-c3ccc(F)cc3)n[nH]c2-c2ccccc2S1(=O)=O [Compound 12, 3‐(4‐Fluorophenyl)‐4‐methyl‐1,4‐dihydropyrazolo[4,3‐c][1,2]benzothiazine 5,5‐dioxide]
- inhibition at 10 µM [7]: 22%
- inhibition at 50 µM [7]: 87%
- synergistic effect with CPX [11]: did not show any synergistic effect
- MIC [3]: > 50 µg/mL
- MIC [12]: > 50 µg/mL

Compound: CN1c2c(-c3ccc(F)c(Cl)c3)n[nH]c2-c2ccccc2S1(=O)=O [Compound 13, 3‐(3‐Chloro‐4‐fluorophenyl)‐4‐methyl‐1,4‐dihydropyrazolo[4,3‐c][1,2]benzothiazine 5,5‐dioxide]
- N° fold CPX MIC reduction ([5]; EPI at 3.12 µg/mL): 2 fold
- N° fold CPX MIC reduction ([5]; EPI at 12.5 µg/mL): 4 fold
- inhibition at 10 µM [7]: 0%
- inhibition at 50 µM [7]: 100%
- synergistic effect with CPX [11]: did not show any synergistic effect
- MIC [3]: > 50 µg/mL
- MIC [12]: > 50 µg/mL

Compound: CN1c2c(-c3ccc(Cl)cc3)nn(CCN3CCCCC3)c2-c2ccccc2S1(=O)=O [Compound 18, 3‐(4‐Chlorophenyl)‐4‐methyl‐1‐(2‐piperidin‐1‐ylethyl)‐1,4‐dihydropyrazolo[4,3‐c][1,2]benzothiazine 5,5‐dioxide]
- N° fold CPX MIC reduction ([5]; EPI at 6.25 µg/mL): 2 fold
- N° fold CPX MIC reduction ([5]; EPI at 12.5 µg/mL): 4 fold
- inhibition at 10 µM [7]: 37%
- inhibition at 50 µM [7]: > 70%
- synergistic effect with CPX [11]: did not show any synergistic effect
- MIC [3]: > 50 µg/mL
- MIC [12]: > 50 µg/mL

Compound: CN1c2c(-c3ccc(F)cc3)nn(C)c2-c2ccc(OCCN3CCCCC3)cc2S1(=O)=O [Compound 20, 3‐(4‐Fluorophenyl)‐1,4‐dimethyl‐7‐(2‐piperidin‐1‐ylethoxy)‐1,4‐dihydropyrazolo[4,3‐c][1,2]benzothiazine 5,5‐dioxide]
- N° fold CPX MIC reduction ([5]; EPI at 6.25 µg/mL): 2 fold
- N° fold CPX MIC reduction ([5]; EPI at 12.5 µg/mL): 8 fold
- inhibition at 10 µM [7]: 33%
- inhibition at 50 µM [7]: > 70%
- synergistic effect with CPX [11]: did not show any synergistic effect
- MIC [3]: > 50 µg/mL
- MIC [12]: > 50 µg/mL

Compound: CCN(CC)CCOC1=C(C(=O)c2ccc(F)cc2)N(C)S(=O)(=O)c2ccccc21 [Compound 23, {4‐[2‐(Diethylamino)ethoxy]‐2‐methyl‐1,1‐dioxido‐2H‐1,2‐benzothiazin‐3‐yl}(4‐fluorophenyl)methanone]
- N° fold CPX MIC reduction ([5]; EPI at 12.5 µg/mL): 2 fold
- inhibition at 50 µM [7]: 36%
- MIC [3]: > 50 µg/mL

Compound: CN1C(C(=O)c2ccc(F)cc2)=C(OCCN2CCCCC2)c2ccccc2S1(=O)=O [Compound 24, (4‐Fluorophenyl)[2‐methyl‐1,1‐dioxido‐4‐(2‐piperidin‐1‐ylethoxy)‐2H‐1,2‐benzothiazin‐3‐yl]methanone]
- N° fold CPX MIC reduction ([5]; EPI at 12.5 µg/mL): 2 fold
- inhibition at 50 µM [7]: 38%
- MIC [3]: > 50 µg/mL
